Laboratory results published in patent publication US10662204B2 (PFIZER INC., priority 2018, dated 2020).

Experiments:
[1] = molecular target: T1, GDP-loaded KRAS (1-169) G12C, C51S, C80L, C118S (Homo sapiens, UniProt P01116, C118S/C51S/C80L/G12C); assay: Mass Spectrometry Reactivity Assay (MSRA): covalent adduct of compound and KRAS G12C, Percent Modification; type: binding; details: for MSRA (% modification) 10 μM 0.25 hr / MSRA (% modification) 10 μM 0.50 hr: 10 μM compound; for MSRA (% modification) 5.0 μM 0.25 hr: 5.0 μM compound
T1 construct: GDP-loaded KRAS (1-169) G12C, C51S, C80L, C118S
Summary of the method: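 Covalent labelling is measured by intact mass: deconvoluted modified and unmodified peak intensities yield percent modification. Compound, usually 5 μM or 10 μM final, reacts at room temperature with 5 μM GDP-bound KRAS G12C (1-169, C51S/C80L/C118S) in Hepes pH 7.5/NaCl/glycerol, sampled at 1, 15, 30, 60 min.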

KRAS G12C = KRAS G12C (Homo sapiens, UniProt P01116, G12C); assay: Cell Activity Assay: accumulation of GDP-bound KRAS G12C in MIAPaCa-2 cells (Raf-1 RBD capture, MSD readout); type: cell-based; parameters: endogenous in cells; host or cells: MIAPaCa-2; details: 6 hours, assay limit is 30.00
Summary of the method: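 IC50 came from a 4-parameter fit of Ras signal normalized between DMSO and full-inhibition controls. Readout: lysate GTP-Ras bound to immobilized Raf-1 RBD, quantified with pan-Ras antibody and MSD electrochemiluminescence. Lysates derived from MIAPaCa-2 cells treated 6 h with serially diluted compound, 0.3% DMSO.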

| SMILES | MSRA (% modification) 10 μM 0.25 hr [1] | IC50 (KRAS G12C) | MSRA (% modification) 10 μM 0.50 hr [1] | MSRA (% modification) 5.0 μM 0.25 hr [1] |
| --- | --- | --- | --- | --- |
| C=CC(=O)N1CCN(c2nc(OC[C@@H]3CC(F)(F)CN3C)nc3c(Oc4c(C)ccc5[nH]ncc45)nccc23)CC1 [Example 07B, 1-[4-(2-{[(2S)-4,4-difluoro-1-methylpyrrolidin-2-yl]methoxy}-8-[(5-methyl-1H-indazol-4-yl)oxy]pyrido[3,4-d]pyrimidin-4-yl)piperazin-1-yl]prop-2-en-1-one] | 15% | 6.18 µM |  |  |
| C=CC(=O)N1CCN(c2ncnc3c(Oc4c(Cl)ccc5[nH]ncc45)cccc23)C[C@@H]1C [Example 07C, 1-[(2S)-4-{8-[(5-chloro-1H-indazol-4-yl)oxy]quinazolin-4-yl}-2-methylpiperazin-1-yl]prop-2-en-1-one] |  | 5.67 µM | 15% |  |
| C=CC(=O)N1CCN(c2nc(OCc3nncn3C)nc3c(Oc4c(C)ccc5[nH]ncc45)cccc23)CC1 [Example 07F, 1-(4-{8-[(5-methyl-1H-indazol-4-yl)oxy]-2-[(4-methyl-4H-1,2,4-triazol-3-yl)methoxy]quinazolin-4-yl}piperazin-1-yl)prop-2-en-1-one] | 74% | 21.2 µM | 75% | 22% |
| C=CC(=O)N1CCN(c2nc(OC[C@@H]3CCCN3C)nc3c(Oc4c(Cl)c(F)cc5[nH]ncc45)nc(Cl)cc23)C[C@@H]1C [Example 07G, 1-[(2S)-4-(6-chloro-8-[(5-chloro-6-fluoro-1H-indazol-4-yl)oxy]-2-{[(2S)-1-methylpyrrolidin-2-yl]methoxy}pyrido[3,4-d]pyrimidin-4-yl)-2-methylpiperazin-1-yl]prop-2-en-1-one] | 77% | 0.404 µM |  |  |
| C=CC(=O)N1CCN(c2nc(OCc3cccnc3)nc3c(Oc4c(Cl)c(F)cc5[nH]ncc45)nccc23)CC1 [Example 07H, 1-(4-{8-[(5-chloro-6-fluoro-1H-indazol-4-yl)oxy]-2-(pyridin-3-ylmethoxy)pyrido[3,4-d]pyrimidin-4-yl}piperazin-1-yl)prop-2-en-1-one] | 77% | 0.285 µM |  | 66% |
| C=CC(=O)N1CCN(c2nc(Oc3cccnc3C(F)(F)F)nc3c(Oc4c(Cl)c(F)cc5[nH]ncc45)nccc23)CC1 [Example 07I, 1-[4-(8-[(5-chloro-6-fluoro-1H-indazol-4-yl)oxy]-2-{[2-(trifluoro-methyl)pyridin-3-yl]oxy}pyrido [3,4-s]pyrimidin-4-yl)piperazin-1-yl]prop-2-en-1-one] |  | 0.331 µM |  | 46% |
| C=CC(=O)N1CCN(c2ncnc3c(Oc4c(F)ccc5[nH]ncc45)nccc23)CC1 [Example 08A, 1-(4-{8-[(5-fluoro-1H-indazol-4-yl)oxy]pyrido[3,4-d]pyrimidin-4-yl}piperazin-1-yl)prop-2-en-1-one] |  | 11.1 µM | 6% |  |
| C=CC(=O)N1CCN(c2nc(OC[C@@H]3CCCN3C)nc3c(Oc4c(C)ccc5[nH]ncc45)nccc23)CC1 [Example 08B, 1-[4-(8-[(5-methyl-1H-indazol-4-yl)oxy]-2-{[(2S)-1-methylpyrrolidin-2-yl]methoxy}pyrido[3,4-d]pyrimidin-4-yl)piperazin-1-yl]prop-2-en-1-one] | 44% | 2.56 µM |  |  |
| C=CC(=O)N1CCN(c2ncnc3c(Oc4c(Cl)ccc5[nH]ncc45)cccc23)CC1 [Example 08C, 1-(4-{8-[(5-chloro-1H-indazol-4-yl)oxy]quinazolin-4-yl}piperazin-1-yl)prop-2-en-1-one] |  | 2.98 µM | 29% |  |
| C=CC(=O)N1CCN(c2nc(N3CC[C@H](N(C)C)C3)nc3c(Oc4c(C)ccc5[nH]ncc45)cccc23)CC1 [Example 08E] |  | 10.7 µM | 25% |  |
| C=CC(=O)N1CCN(c2nc(O[C@H]3Cc4nccn4C3)nc3c(Oc4c(C)ccc5[nH]ncc45)cccc23)CC1 [Example 08F, 1-(4-{2-[(6S)-6,7-dihydro-5H-pyrrolo[1,2-a]imidazol-6-yloxy]-8-[(5-methyl-1H-indazol-4-yl)oxy]quinazolin-4-yl}piperazin-1-yl)prop-2-en-1-one] | 58% | 1.6 µM | 72% |  |
| C=CC(=O)N1CCN(c2nc(OC[C@H]3COCCN3C)nc3c(Oc4c(Cl)c(F)cc5[nH]ncc45)nc(Cl)cc23)CC1 [Example 08G, 1-[4-(6-chloro-8-[(5-chloro-6-fluoro-1H-indazol-4-yl)oxy]-2-{[(3R)-4-methylmorpholin-3-yl]methoxy}pyrido[3,4-d]pyrimidin-4-yl)piperazin-1-yl]prop-2-en-1-one] | 80% | 0.148 µM |  |  |
| C=CC(=O)N1CCN(c2nc(OCc3ccccn3)nc3c(Oc4c(Cl)c(F)cc5[nH]ncc45)nccc23)CC1 [Example 08H, 1-(4-{8-[(5-chloro-6-fluoro-1H-indazol-4-yl)oxy]-2-(pyridin-2-ylmethoxy)pyrido[3,4-d]pyrimidin-4-yl}piperazin-1-yl)prop-2-en-1-one] |  | 0.491 µM |  | 36% |

Continued, values first:

| MSRA (% modification) 10 μM 0.25 hr [1] | IC50 (KRAS G12C) | MSRA (% modification) 10 μM 0.50 hr [1] | MSRA (% modification) 5.0 μM 0.25 hr [1] | SMILES |
| --- | --- | --- | --- | --- |
|  | 0.265 µM |  | 65% | C=CC(=O)N1CCN(c2nc(Oc3cccnc3OC)nc3c(Oc4c(Cl)c(F)cc5[nH]ncc45)nccc23)CC1 [Example 08I, 1-(4-{8-[(5-chloro-6-fluoro-1H-indazol-4-yl)oxy]-2-[(2-methoxy-pyridin-3-yl)oxy]pyrido [3,4-d]pyrimidin-4-yl}piperazin-1-yl)prop-2-en-1-one] |
|  | 1.87 µM | 38% |  | C=CC(=O)N1CCN(c2ncnc3c(Oc4c(C)ccc5[nH]ncc45)nc(Cl)cc23)CC1 [Example 09A, 1-(4-{6-chloro-8-[(5-methyl-1H-indazol-4-yl)oxy]pyrido[3,4-d]pyrimidin-4-yl}piperazin-1-yl)prop-2-en-1-one] |
| 43% | 3.1 µM |  |  | C=CC(=O)N1CCN(c2nc(OC[C@H]3CCCN3C)nc3c(Oc4c(C)ccc5[nH]ncc45)nccc23)CC1 [Example 09B, 1-[4-(8-[(5-methyl-1H-indazol-4-yl)oxy]-2-{[(2R)-1-methylpyrrolidin-2-yl]methoxy}pyrido[3,4-d]pyrimidin-4-yl)piperazin-1-yl]prop-2-en-1-one] |
|  | 2.87 µM | 34% |  | C=CC(=O)N1CCN(c2ncnc3c(Oc4c(Cl)ccc5[nH]ncc45)cccc23)[C@@H](C)C1 [Example 09C, 1-[(3S)-4-{8-[(5-chloro-1H-indazol-4-yl)oxy]quinazolin-4-yl}-3-methylpiperazin-1-yl]prop-2-en-1-one] |
|  | 7.4 µM | 24% |  | C=CC(=O)N1CCN(c2nc(N3CC[C@@H](N(C)C)C3)nc3c(Oc4c(C)ccc5[nH]ncc45)cccc23)CC1 [Example 09E, 1-(4-{2-[(3R)-3-(dimethylamino)pyrrolidin-1-yl]-8-[(5-methyl-1H-indazol-4-yl)oxy]quinazolin-4-yl}piperazin-1-yl)prop-2-en-1-one] |
| 64% | 3 µM | 75% |  | C=CC(=O)N1CCN(c2nc(OCCc3ncc[nH]3)nc3c(Oc4c(C)ccc5[nH]ncc45)cccc23)CC1 [Example 09F, 1-(4-{2-[2-(1H-imidazol-2-yl)ethoxy]-8-[(5-methyl-1H-indazol-4-yl)oxy]quinazolin-4-yl}piperazin-1-yl)prop-2-en-1-one] |
| 81% | 0.239 µM | 83% | 78% | C=CC(=O)N1CCN(c2nc(OC[C@@H]3CCCN3C)nc3c(Oc4c(Cl)c(C)cc5[nH]ncc45)nccc23)CC1 [Example 09H, 1-[4-(8-[(5-chloro-6-methyl-1H-indazol-4-yl)oxy]-2-{[(2S)-1-methylpyrrolidin-2-yl]methoxy}pyrido[3,4-d]pyrimidin-4-yl)piperazin-1-yl]prop-2-en-1-one] |
|  | 0.398 µM |  | 44% | C=CC(=O)N1CCN(c2nc(Oc3cnn(C)c3)nc3c(Oc4c(Cl)c(F)cc5[nH]ncc45)nccc23)CC1 [Example 09I, 1-(4-{8-[(5-chloro-6-fluoro-1H-indazol-4-yl)oxy]-2-[(1-methyl-1H-pyrazol-4-yl)oxy]pyrido [3,4-d]pyrimidin-4-yl}piperazin-1-yl)prop-2-en-1-one] |
|  | 7.5 µM | 10% |  | C=CC(=O)N1CCN(c2ncnc3c(Oc4c(C)ccc5[nH]ncc45)nccc23)[C@@H](C)C1 [Example 10A, 1-[(3S)-3-methyl-4-{8-[(5-methyl-1H-indazol-4-yl)oxy]pyrido[3,4-d]pyrimidin-4-yl}piperazin-1-yl]prop-2-en-1-one] |
| 60% | 13.4 µM |  |  | C=CC(=O)N1CCN(c2nc(OC[C@@H]3CCN(C)C3)nc3c(Oc4c(C)ccc5[nH]ncc45)nccc23)CC1 [Example 10B, 1-[4-(8-[(5-methyl-1H-indazol-4-yl)oxy]-2-{[(3R)-1-methylpyrrolidin-3-yl]methoxy}pyrido[3,4-d]pyrimidin-4-yl)piperazin-1-yl]prop-2-en-1-one] |
|  | 5.21 µM | 27% |  | C=CC(=O)N1CCN(c2ncnc3c(Oc4c(C)ccc5[nH]ncc45)cccc23)[C@@H](C)C1 [Example 10C, 1-[(3S)-3-methyl-4-{8-[(5-methyl-1H-indazol-4-yl)oxy]quinazolin-4-yl}piperazin-1-yl]prop-2-en-1-one] |
